Source: ChEMBL document CHEMBL1155237, “Selective inhibitors of the mutant B-Raf pathway: discovery of a potent and orally bioavailable aminoisoquinoline” (J Med Chem, 2009)

Key:
[1] = biological target: Mitogen-activated protein kinase kinase kinase 9 (Homo sapiens) (UniProt P80192); assay: Inhibition of MLK1 assessed as enzyme activity at 1 uM relative to untreated control; parameters: scale not given: the % may be the effect or the level left
[2] = biological target: Serine/threonine-protein kinase PAK 3 (Homo sapiens) (UniProt O75914); assay: Inhibition of PAK3 assessed as enzyme activity at 1 uM relative to untreated control; parameters: scale not given: the % may be the effect or the level left
[3] = test system: Mast/stem cell growth factor receptor Kit (Homo sapiens), P10721 [D816V]; assay: Inhibition of KIT D816V mutant assessed as enzyme activity at 1 uM relative to untreated control; parameters: scale not given: the % may be the effect or the level left
[4] = biological target: cGMP-dependent protein kinase 2 (Homo sapiens) (UniProt Q13237); assay: Inhibition of PRKG2 assessed as enzyme activity at 1 uM relative to untreated control; parameters: scale not given: the % may be the effect or the level left
[5] = biological target: Interferon-induced, double-stranded RNA-activated protein kinase (Homo sapiens) (UniProt P19525); assay: Inhibition of PRKR assessed as enzyme activity at 1 uM relative to untreated control; parameters: scale not given: the % may be the effect or the level left
[6] = biological target: cAMP-dependent protein kinase catalytic subunit PRKX (Homo sapiens) (UniProt P51817); assay: Inhibition of PRKX assessed as enzyme activity at 1 uM relative to untreated control; parameters: scale not given: the % may be the effect or the level left
[7] = biological target: Protein-tyrosine kinase 2-beta (Homo sapiens) (UniProt Q14289); assay: Inhibition of PTK2B assessed as enzyme activity at 1 uM relative to untreated control; parameters: scale not given: the % may be the effect or the level left
[8] = test system: Proto-oncogene tyrosine-protein kinase receptor Ret (Homo sapiens), P07949 [V804L]; assay: Inhibition of RET V804L mutant assessed as enzyme activity at 1 uM relative to untreated control; parameters: scale not given: the % may be the effect or the level left
[9] = biological target: Ribosomal protein S6 kinase alpha-1 (Homo sapiens) (UniProt Q15418); assay: Inhibition of RPS6KA1 kinase domain 1 assessed as enzyme activity at 1 uM relative to untreated control; parameters: scale not given: the % may be the effect or the level left
[10] = biological target: Ribosomal protein S6 kinase alpha-2 (Homo sapiens) (UniProt Q15349); assay: Inhibition of RPS6KA2 kinase domain 2 assessed as enzyme activity at 1 uM relative to untreated control; parameters: scale not given: the % may be the effect or the level left
[11] = biological target: Ribosomal protein S6 kinase alpha-5 (Homo sapiens) (UniProt O75582); assay: Inhibition of RPS6KA5 kinase domain 2 assessed as enzyme activity at 1 uM relative to untreated control; parameters: scale not given: the % may be the effect or the level left
Chain of Ribosomal protein S6 kinase alpha-5 (Homo sapiens) (O75582 whole entry, looked up, the tested form may be a part): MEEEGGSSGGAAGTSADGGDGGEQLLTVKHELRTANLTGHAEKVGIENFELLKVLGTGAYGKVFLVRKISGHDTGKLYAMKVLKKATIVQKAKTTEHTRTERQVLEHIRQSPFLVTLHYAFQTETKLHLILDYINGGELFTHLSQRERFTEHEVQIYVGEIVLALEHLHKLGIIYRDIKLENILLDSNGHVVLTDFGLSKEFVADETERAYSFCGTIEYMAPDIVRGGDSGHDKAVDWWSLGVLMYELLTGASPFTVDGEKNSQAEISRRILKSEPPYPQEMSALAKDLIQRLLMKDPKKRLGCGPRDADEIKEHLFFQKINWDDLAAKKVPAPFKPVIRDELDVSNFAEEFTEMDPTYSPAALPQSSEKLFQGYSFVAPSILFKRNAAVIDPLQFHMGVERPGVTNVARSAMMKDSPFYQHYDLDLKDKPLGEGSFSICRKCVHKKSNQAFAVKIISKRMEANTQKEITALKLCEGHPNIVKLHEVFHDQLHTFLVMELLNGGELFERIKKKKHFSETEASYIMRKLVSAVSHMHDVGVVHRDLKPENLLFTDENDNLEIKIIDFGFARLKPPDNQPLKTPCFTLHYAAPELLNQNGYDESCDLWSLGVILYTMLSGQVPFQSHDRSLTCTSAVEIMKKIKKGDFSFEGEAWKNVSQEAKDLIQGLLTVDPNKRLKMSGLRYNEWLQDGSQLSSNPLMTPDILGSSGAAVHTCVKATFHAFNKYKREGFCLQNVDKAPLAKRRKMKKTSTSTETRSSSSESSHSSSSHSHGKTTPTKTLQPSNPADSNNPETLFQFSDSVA

[12] = biological target: Myosin light chain kinase family member 4 (Homo sapiens) (UniProt Q86YV6); assay: Inhibition of SgK085 assessed as enzyme activity at 1 uM relative to untreated control; parameters: scale not given: the % may be the effect or the level left
Chain of Myosin light chain kinase family member 4 (Homo sapiens) (Q86YV6 whole entry): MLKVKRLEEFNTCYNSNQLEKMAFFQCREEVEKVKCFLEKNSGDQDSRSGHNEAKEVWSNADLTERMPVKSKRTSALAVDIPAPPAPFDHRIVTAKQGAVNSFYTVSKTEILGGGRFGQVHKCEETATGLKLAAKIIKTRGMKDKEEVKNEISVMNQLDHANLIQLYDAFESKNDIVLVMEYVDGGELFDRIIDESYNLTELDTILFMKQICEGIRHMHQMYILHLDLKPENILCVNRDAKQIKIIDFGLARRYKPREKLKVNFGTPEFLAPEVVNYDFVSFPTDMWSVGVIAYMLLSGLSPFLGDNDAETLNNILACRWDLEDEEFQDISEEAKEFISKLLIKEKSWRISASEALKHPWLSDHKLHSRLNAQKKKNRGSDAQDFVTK

[13] = biological target: Proto-oncogene tyrosine-protein kinase Src (Homo sapiens) (UniProt P12931); assay: Inhibition of SRC assessed as enzyme activity at 1 uM relative to untreated control; parameters: scale not given: the % may be the effect or the level left
[14] = biological target: Mitogen-activated protein kinase 6 (Homo sapiens) (UniProt Q16659); assay: Inhibition of ERK3 assessed as enzyme activity at 1 uM relative to untreated control; parameters: scale not given: the % may be the effect or the level left
[15] = biological target: Mitogen-activated protein kinase 4 (Homo sapiens) (UniProt P31152); assay: Inhibition of ERK4 assessed as enzyme activity at 1 uM relative to untreated control; parameters: scale not given: the % may be the effect or the level left
[16] = biological target: Mitogen-activated protein kinase 15 (Homo sapiens) (UniProt Q8TD08); assay: Inhibition of ERK8 assessed as enzyme activity at 1 uM relative to untreated control; parameters: scale not given: the % may be the effect or the level left
Chain of Mitogen-activated protein kinase 15 (Homo sapiens) (Q8TD08 whole entry): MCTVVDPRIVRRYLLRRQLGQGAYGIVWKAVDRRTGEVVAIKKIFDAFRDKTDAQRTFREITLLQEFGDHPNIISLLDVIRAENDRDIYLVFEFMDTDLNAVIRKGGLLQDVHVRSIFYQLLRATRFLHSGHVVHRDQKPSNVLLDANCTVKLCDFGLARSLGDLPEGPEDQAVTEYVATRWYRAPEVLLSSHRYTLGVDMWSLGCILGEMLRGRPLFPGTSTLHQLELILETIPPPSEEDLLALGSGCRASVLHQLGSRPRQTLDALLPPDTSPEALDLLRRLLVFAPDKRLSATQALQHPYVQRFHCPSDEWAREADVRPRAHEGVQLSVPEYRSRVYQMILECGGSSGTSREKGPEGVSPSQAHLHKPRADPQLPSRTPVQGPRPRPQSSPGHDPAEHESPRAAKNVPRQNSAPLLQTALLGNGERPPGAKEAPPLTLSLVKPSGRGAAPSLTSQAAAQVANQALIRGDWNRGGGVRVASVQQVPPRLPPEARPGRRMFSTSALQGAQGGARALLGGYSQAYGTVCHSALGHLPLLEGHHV

[17] = biological target: Tyrosine-protein kinase Fgr (Homo sapiens) (UniProt P09769); assay: Inhibition of FGR assessed as enzyme activity at 1 uM relative to untreated control; parameters: scale not given: the % may be the effect or the level left
Chain of Tyrosine-protein kinase Fgr (Homo sapiens) (P09769 2-529 limits assumed): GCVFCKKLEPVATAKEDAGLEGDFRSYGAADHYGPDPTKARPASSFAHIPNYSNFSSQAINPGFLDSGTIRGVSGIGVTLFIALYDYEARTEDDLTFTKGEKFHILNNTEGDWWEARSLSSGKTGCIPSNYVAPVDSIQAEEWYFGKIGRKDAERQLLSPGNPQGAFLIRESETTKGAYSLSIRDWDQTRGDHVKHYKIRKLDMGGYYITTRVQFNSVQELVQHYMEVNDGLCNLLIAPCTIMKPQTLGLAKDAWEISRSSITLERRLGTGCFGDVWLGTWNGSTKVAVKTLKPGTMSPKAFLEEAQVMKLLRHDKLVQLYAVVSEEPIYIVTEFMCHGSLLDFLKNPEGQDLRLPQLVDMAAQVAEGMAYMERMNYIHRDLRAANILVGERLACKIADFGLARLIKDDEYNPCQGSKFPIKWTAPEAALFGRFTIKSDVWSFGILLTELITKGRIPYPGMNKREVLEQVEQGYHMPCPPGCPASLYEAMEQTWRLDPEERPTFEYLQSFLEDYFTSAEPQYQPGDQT

[18] = biological target: Tyrosine-protein kinase HCK (Homo sapiens) (UniProt P08631); assay: Inhibition of HCK assessed as enzyme activity at 1 uM relative to untreated control; parameters: scale not given: the % may be the effect or the level left
[19] = biological target: Interleukin-1 receptor-associated kinase 3 (Homo sapiens) (UniProt Q9Y616); assay: Inhibition of IRAK3 assessed as enzyme activity at 1 uM relative to untreated control; parameters: scale not given: the % may be the effect or the level left
[20] = biological target: Tyrosine-protein kinase JAK1 (Homo sapiens) (UniProt P23458); assay: Inhibition of JAK1 kinase domain 1 assessed as enzyme activity at 1 uM relative to untreated control; parameters: scale not given: the % may be the effect or the level left
Chain of Tyrosine-protein kinase JAK1 (Homo sapiens) (P23458 whole entry, the tested form may be a part): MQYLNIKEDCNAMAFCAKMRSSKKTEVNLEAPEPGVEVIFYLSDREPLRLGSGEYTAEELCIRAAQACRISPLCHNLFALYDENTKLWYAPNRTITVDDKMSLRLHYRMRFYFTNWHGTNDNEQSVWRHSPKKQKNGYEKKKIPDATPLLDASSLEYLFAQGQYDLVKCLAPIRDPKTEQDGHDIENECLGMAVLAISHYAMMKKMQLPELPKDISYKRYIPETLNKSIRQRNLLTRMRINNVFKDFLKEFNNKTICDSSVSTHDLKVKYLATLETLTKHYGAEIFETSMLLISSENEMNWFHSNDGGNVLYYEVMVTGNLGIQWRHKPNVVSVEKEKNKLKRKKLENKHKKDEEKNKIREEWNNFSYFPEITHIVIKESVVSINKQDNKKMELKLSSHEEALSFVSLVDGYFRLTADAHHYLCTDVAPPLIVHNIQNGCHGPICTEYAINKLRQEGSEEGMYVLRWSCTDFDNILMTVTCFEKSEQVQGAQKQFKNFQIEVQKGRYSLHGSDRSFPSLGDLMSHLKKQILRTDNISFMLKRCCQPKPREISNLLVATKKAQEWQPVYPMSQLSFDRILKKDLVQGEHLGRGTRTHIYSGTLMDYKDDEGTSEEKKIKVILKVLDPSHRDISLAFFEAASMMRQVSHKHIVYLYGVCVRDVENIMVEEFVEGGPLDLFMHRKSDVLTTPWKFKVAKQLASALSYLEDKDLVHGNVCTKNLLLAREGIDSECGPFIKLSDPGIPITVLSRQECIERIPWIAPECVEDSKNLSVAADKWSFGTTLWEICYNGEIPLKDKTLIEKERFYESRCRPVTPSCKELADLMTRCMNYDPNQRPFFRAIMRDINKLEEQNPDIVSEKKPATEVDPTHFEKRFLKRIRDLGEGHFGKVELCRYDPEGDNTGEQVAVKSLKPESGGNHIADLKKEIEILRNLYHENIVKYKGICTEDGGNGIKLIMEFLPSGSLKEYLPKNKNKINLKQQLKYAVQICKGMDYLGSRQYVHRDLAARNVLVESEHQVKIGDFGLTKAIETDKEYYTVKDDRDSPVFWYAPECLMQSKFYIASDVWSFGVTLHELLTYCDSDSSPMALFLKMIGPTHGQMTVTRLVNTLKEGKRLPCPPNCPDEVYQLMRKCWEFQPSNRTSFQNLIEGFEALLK

[21] = biological target: Tyrosine-protein kinase JAK1 (Homo sapiens) (UniProt P23458); assay: Inhibition of JAK1 kinase domain 2 assessed as enzyme activity at 1 uM relative to untreated control; parameters: scale not given: the % may be the effect or the level left
[22] = biological target: Serine/threonine-protein kinase DCLK2 (Homo sapiens) (UniProt Q8N568); assay: Inhibition of DCAMKL2 assessed as enzyme activity at 1 uM relative to untreated control; parameters: scale not given: the % may be the effect or the level left
Chain of Serine/threonine-protein kinase DCLK2 (Homo sapiens) (Q8N568 whole entry): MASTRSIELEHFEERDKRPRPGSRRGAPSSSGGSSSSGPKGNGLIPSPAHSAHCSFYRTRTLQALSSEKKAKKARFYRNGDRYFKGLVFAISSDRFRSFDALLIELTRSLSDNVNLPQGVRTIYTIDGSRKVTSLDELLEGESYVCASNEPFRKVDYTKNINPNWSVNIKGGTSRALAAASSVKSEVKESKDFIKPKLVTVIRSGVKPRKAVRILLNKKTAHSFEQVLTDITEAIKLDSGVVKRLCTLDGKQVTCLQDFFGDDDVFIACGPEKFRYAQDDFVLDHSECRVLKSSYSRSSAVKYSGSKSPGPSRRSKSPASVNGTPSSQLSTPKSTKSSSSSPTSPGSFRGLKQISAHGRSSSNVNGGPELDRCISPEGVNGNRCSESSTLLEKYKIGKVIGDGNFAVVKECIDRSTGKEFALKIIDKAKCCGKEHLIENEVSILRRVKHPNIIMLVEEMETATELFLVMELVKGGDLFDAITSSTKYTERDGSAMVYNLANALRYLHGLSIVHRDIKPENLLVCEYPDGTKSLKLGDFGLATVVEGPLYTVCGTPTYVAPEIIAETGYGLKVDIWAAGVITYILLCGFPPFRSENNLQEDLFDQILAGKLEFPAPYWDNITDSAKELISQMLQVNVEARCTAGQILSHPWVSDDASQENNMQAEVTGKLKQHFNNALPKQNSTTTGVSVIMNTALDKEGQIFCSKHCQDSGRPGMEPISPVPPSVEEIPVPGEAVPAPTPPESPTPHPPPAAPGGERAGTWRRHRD

[23] = biological target: Serine/threonine-protein kinase 17B (Homo sapiens) (UniProt O94768); assay: Inhibition of DRAK2 assessed as enzyme activity at 1 uM relative to untreated control; parameters: scale not given: the % may be the effect or the level left
[24] = biological target: Epidermal growth factor receptor (Homo sapiens) (UniProt P04626+P00533+Q15303+P21860); assay: Inhibition of EGFR E746-A750del mutant assessed as enzyme activity at 1 uM relative to untreated control; format: protein assay; parameters: scale not given: the % may be the effect or the level left
[25] = test system: Epidermal growth factor receptor (Homo sapiens), P00533 [G719C]; assay: Inhibition of EGFR G719C mutant assessed as enzyme activity at 1 uM relative to untreated control; format: protein assay; parameters: scale not given: the % may be the effect or the level left
[26] = test system: Epidermal growth factor receptor (Homo sapiens), P00533 [UNDEFINED MUTATION]; assay: Inhibition of EGFR L747-S752del, P753S mutant assessed as enzyme activity at 1 uM relative to untreated control; format: protein assay; parameters: scale not given: the % may be the effect or the level left
[27] = biological target: Ephrin type-A receptor 1 (Homo sapiens) (UniProt P21709); assay: Inhibition of EPHA1 assessed as enzyme activity at 1 uM relative to untreated control; parameters: scale not given: the % may be the effect or the level left
A-375 = assay: Antitumor activity against human A375 SQ2 cells xenografted in po dosed CD1 mouse assessed as inhibition of tumor growth administered once daily for 14 days; format: functional; conditions: 336 h
[28] = biological target: Atypical kinase COQ8A, mitochondrial (Homo sapiens) (UniProt Q8NI60); assay: Inhibition of ADCK3 assessed as enzyme activity at 1 uM relative to untreated control; parameters: scale not given: the % may be the effect or the level left
[29] = biological target: 3-phosphoinositide-dependent protein kinase 1 (Homo sapiens) (UniProt O15530); assay: Inhibition of PDPK1 assessed as enzyme activity at 1 uM relative to untreated control; parameters: scale not given: the % may be the effect or the level left
[30] = biological target: Aurora kinase B (Homo sapiens) (UniProt Q96GD4); assay: Inhibition of AURKB assessed as enzyme activity at 1 uM relative to untreated control; parameters: scale not given: the % may be the effect or the level left
[31] = biological target: Aurora kinase C (Homo sapiens) (UniProt Q9UQB9); assay: Inhibition of AURKC assessed as enzyme activity at 1 uM relative to untreated control; parameters: scale not given: the % may be the effect or the level left
[32] = biological target: Tyrosine-protein kinase SYK (Homo sapiens) (UniProt P43405); assay: Inhibition of SYK assessed as enzyme activity at 1 uM relative to untreated control; parameters: scale not given: the % may be the effect or the level left
[33] = biological target: Tyrosine-protein kinase Tec (Homo sapiens) (UniProt P42680); assay: Inhibition of TEC assessed as enzyme activity at 1 uM relative to untreated control; parameters: scale not given: the % may be the effect or the level left
[34] = biological target: Serine/threonine-protein kinase tousled-like 2 (Homo sapiens) (UniProt Q86UE8); assay: Inhibition of TLK2 assessed as enzyme activity at 1 uM relative to untreated control; parameters: scale not given: the % may be the effect or the level left
[35] = biological target: Tyrosine-protein kinase receptor TYRO3 (Homo sapiens) (UniProt Q06418); assay: Inhibition of TYRO3 assessed as enzyme activity at 1 uM relative to untreated control; parameters: scale not given: the % may be the effect or the level left
Chain of Tyrosine-protein kinase receptor TYRO3 (Homo sapiens) (Q06418 whole entry): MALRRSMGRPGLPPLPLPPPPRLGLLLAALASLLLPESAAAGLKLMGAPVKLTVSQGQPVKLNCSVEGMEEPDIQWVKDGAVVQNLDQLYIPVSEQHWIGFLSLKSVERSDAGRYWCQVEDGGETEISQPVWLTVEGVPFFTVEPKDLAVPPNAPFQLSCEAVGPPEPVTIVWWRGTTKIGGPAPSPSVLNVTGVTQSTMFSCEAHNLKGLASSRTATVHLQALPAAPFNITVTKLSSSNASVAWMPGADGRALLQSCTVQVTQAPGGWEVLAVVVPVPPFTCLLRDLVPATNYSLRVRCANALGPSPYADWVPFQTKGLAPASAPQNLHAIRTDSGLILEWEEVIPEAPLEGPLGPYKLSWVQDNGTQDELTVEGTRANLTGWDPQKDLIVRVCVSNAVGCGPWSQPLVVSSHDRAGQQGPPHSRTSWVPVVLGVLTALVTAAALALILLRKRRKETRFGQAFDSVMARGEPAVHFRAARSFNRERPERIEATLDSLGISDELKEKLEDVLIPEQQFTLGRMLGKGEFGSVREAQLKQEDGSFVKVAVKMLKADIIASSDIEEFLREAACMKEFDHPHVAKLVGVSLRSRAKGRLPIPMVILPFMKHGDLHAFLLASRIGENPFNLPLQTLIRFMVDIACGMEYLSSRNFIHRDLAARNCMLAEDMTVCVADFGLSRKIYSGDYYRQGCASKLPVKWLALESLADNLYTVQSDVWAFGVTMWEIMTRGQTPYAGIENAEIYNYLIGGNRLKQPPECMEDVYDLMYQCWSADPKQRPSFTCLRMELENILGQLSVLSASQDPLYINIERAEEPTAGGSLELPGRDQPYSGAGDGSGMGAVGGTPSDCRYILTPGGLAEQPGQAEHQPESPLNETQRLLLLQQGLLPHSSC

[36] = biological target: Tyrosine-protein kinase ZAP-70 (Homo sapiens) (UniProt P43403); assay: Inhibition of ZAP70 assessed as enzyme activity at 1 uM relative to untreated control; parameters: scale not given: the % may be the effect or the level left

Cc1ccc2c(Nc3ccc(Cl)cc3)nccc2c1Nc1ncccc1-c1ncnc2[nH]cnc12.Cl.Cl.Cl
Activity [1]: 100% | Activity [2]: 87% | Activity [3]: 100% | Activity [4]: 100% | Activity [5]: 97% | Activity [6]: 65% | Activity [7]: 40% | Activity [8]: 100% | Activity [9]: 94% | Activity [10]: 81% | Activity [11]: 100% | Activity [12]: 100% | Activity [13]: 73% | Activity [14]: 98% | Activity [15]: 100% | Activity [16]: 98% | Activity [17]: 100% | Activity [18]: 53% | Activity [19]: 81% | Activity [20]: 98% | Activity [21]: 47% | Activity [22]: 100% | Activity [23]: 96% | Activity [24]: 86% | Activity [25]: 92% | Activity [26]: 94% | Activity [27]: 4.6% | ED50 (A-375): 1.3 mg/kg | Activity [28]: 100% | Activity [29]: 100% | Activity [30]: 85% | Activity [31]: 86% | Activity [32]: 86% | Activity [33]: 100% | Activity [34]: 100% | Activity [35]: 84% | Activity [36]: 100%
